The values that follow come from US5405849A, “Angiotensin II receptor blocking 2,3,6 substituted quinazolinones” (American Cyanamid Company, priority 1993, dated 1995).

For one assay, the target named is angiotensin II receptors. Nature of the assay: Angiotensin II receptor binding (displacement of 3H-angiotensin II), rat adrenocortical microsomes. As to conditions: 2 nM 3H-angiotensin II. The protocol:
The source of the angiotensin II receptors utilized in the screen is from rat adrenocortical microsomes. The cortices are placed in ice cold sucrose buffer (0.2 m sucrose, 1 mm EDTA, 10 mm Trizma base, pH 7.4) and homogenized in a chilled ground glass tissue grinder. The homogenate is centrifuged at 3000×g for 10 min. and the resultant supernatant is decanted through cheesecloth and centrifuged at 12,000×g for 3 min. […] Binding assays are performed by incubating aliquots of freshly prepared microsomes in the absence or presence of compound (40 uM final concentration). Ten minutes later, ^3 H-angiotensin II is added to each tube (2 nM final concentration) and incubated for 60 minutes at […]. The reaction is terminated by the addition of 3 ml of cold assay buffer without albumin and the bound and free radioactivity is separated rapidly through glass-fiber filters prewetted with assay buffer. After two additional 3 ml rinses, the filters are placed in scintillation fluid and counted in a scintillation counter to determine trapped radioactivity.

Assay [1] has as its system angiotensin II (AII) vasopressor response. Nature of the assay: AII challenge: antagonism of the vasopressor response of angiotensin II in conscious Okamoto-Aoki SHR. The format is in vivo, rat (Okamoto-Aoki SHR). The following applies: for inhibition in vivo at 30 mg/kg / inhibition in vivo at 3 mg/kg / inhibition in vivo at 10 mg/kg / inhibition in vivo at 6 mg/kg / inhibition in vivo at 5 mg/kg: Rattus norvegicus; for inhibition in vivo at 30 mg/kg / inhibition in vivo at 3 mg/kg / inhibition in vivo at 10 mg/kg / inhibition in vivo at 6 mg/kg: iv; for inhibition in vivo at 3 mg/kg: 3 mg/kg iv; for inhibition in vivo at 10 mg/kg: 10 mg/kg iv; for inhibition in vivo at 5 mg/kg: po. The source says: Conscious Male Okamoto-Aoki SHR, 16-20 weeks old, weighing approximately 330 g are purchased from Charles River Labs (Wilmington, Mass.). Conscious rats are restrained in a supine position with elastic tape. The area at the base of the tail is locally anesthetized by subcutaneous infiltration with 2% procaine. The ventral caudal artery and vein are isolated, and a cannula made of polyethylene (PE) 10-20 tubing (fused together by heat) is passed into the lower abdominal aorta and vena cava, respectively. The cannula is secured, heparinized (1,000 I.U./ml), sealed and the wound is closed. The animals are placed in plastic restraining cages in an upright position. The cannula is attached to a Statham P23Db pressure transducer, and pulsatile blood pressure is recorded to 10-15 minutes with a Gould Brush recorder.
Angiotensin II (human sequence, Sigma Chem. Co., St. Louis, Mo.) of 0.05 and 0.1 ug/kg i.v. is injected into all rats (predosing response). Then a test compound, vehicle or a known angiotensin II antagonist is administered i.v., i.p. or orally to each set of rats. […] The vasopressor response of angiotensin II is measured for the increase in systolic blood pressure in mmHg. The percentage of antagonism or blockade of the vasopressor response of angiotensin II by a compound is calculated using the vasopressor response (increase in systolic blood pressure) of angiotensin II of each rat predosing the compound as 100%.

Setting [2] is: 0.5 h, 30 mg/kg iv, AII .05 ug/kg, 30 min.
Setting [3] is: 0.5 h, 30 mg/kg iv, AII .1 ug/kg, 30 min.
[4] abbreviates: 1.5 h, 30 mg/kg iv, AII .05 ug/kg, 90 min.
[5] abbreviates: 1.5 h, 30 mg/kg iv, AII .1 ug/kg, 90 min.
The mark [6] stands for this setting: 2.5 h, 30 mg/kg iv, AII .05 ug/kg, 150 min.
[7] abbreviates: 2.5 h, 30 mg/kg iv, AII .1 ug/kg, 150 min.
[8] abbreviates: 0.5 h, 5 mg/kg oral, AII .05 ug/kg, 30 min.
Where [9] appears, read: 0.5 h, 5 mg/kg oral, AII .1 ug/kg, 30 min.
Where [10] appears, read: 1.5 h, 5 mg/kg oral, AII .05 ug/kg, 90 min.
Where [11] appears, read: 1.5 h, 5 mg/kg oral, AII .1 ug/kg, 90 min.
Setting [12] is: 2.5 h, 5 mg/kg oral, AII .05 ug/kg, 150 min.
Setting [13] is: 2.5 h, 5 mg/kg oral, AII .1 ug/kg, 150 min.

At angiotensin II receptors, `CCCCc1nc2ccc(C(CC)OC)cc2c(=O)n1Cc1ccc(-c2ccccc2-c2nnn[nH]2)cc1` (stereo not drawn) [Example 55, 2-Butyl-6-(1-methoxypropyl)-3-[[2'-(1H-tetrazol-5-yl) [1,1'-biphenyl]-4-yl]methyl]-4(3H) -quinazolinone] yielded an IC50 of 5 nM. Further, the “Response change (systolic BP increase to AII)” value came to 10 mmHg in assay [1] (30 mg/kg iv, AII .05 ug/kg, 30 min); 15 mmHg in assay [1] (30 mg/kg iv, AII .05 ug/kg, 90 min); 20 mmHg in assay [1] (30 mg/kg iv, AII .05 ug/kg, 150 min); 15 mmHg in assay [1] (30 mg/kg iv, AII .1 ug/kg, 30 min); 5 mmHg in assay [1] (30 mg/kg iv, AII .1 ug/kg, 90 min); 5 mmHg in assay [1] (30 mg/kg iv, AII .1 ug/kg, 150 min). The inhibition in vivo at 30 mg/kg in assay [1] (setting [2]) was 82%; in assay [1] (setting [3]), 73%; in assay [1] (setting [4]), 73%; in assay [1] (setting [5]), 91%; in assay [1] (setting [6]), 64%; in assay [1] (setting [7]), 91%.
As to `CCCCc1nc2ccc(CO)cc2c(=O)n1Cc1ccc(-c2ccccc2-c2nnn[nH]2)cc1` [Example 53], the “Response change (systolic BP increase to AII)” value in assay [1] (6 mg/kg iv, AII .025 ug/kg, 30 min) amounted to 15 mmHg; in assay [1] (6 mg/kg iv, AII .025 ug/kg, 90 min) it was 10 mmHg. The inhibition in vivo at 3 mg/kg in assay [1] (10 min, AII .05 ug/kg) turned out to be 62%; in assay [1] (10 min, AII .1 ug/kg), 42%; in assay [1] (0.5 h, AII .025 ug/kg, 30 min) it was 53%; in assay [1] (1 h, AII .05 ug/kg, 60 min), 30%; in assay [1] (1 h, AII .1 ug/kg, 60 min), 13%; in assay [1] (1.5 h, AII .025 ug/kg, 90 min), 47%. For the same compound, testing at 3 mg/kg in assay [1] (1.5 h, AII .1 ug/kg, 90 min) gave an inhibition in vivo of 13%. The inhibition in vivo at 10 mg/kg in assay [1] (10 min, AII .05 ug/kg) was 83%; in assay [1] (10 min, AII .1 ug/kg), 90%; in assay [1] (0.5 h, AII .05 ug/kg, 30 min, second 30/60/90 series), 76%; in assay [1] (0.5 h, AII .1 ug/kg, 30 min, second 30/60/90 series) it was 60%; in assay [1] (1 h, AII .05 ug/kg, 60 min, second 30/60/90 series), 46%; in assay [1] (1 h, AII .1 ug/kg, 60 min, second 30/60/90 series), 44%. Also, the inhibition in vivo at 10 mg/kg in assay [1] (1.5 h, AII .05 ug/kg, 90 min) turned out to be 41%; in assay [1] (1.5 h, AII .05 ug/kg, 90 min, second 30/60/90 series), 35%; in assay [1] (1.5 h, AII .1 ug/kg, 90 min), 56%; in assay [1] (1.5 h, AII .1 ug/kg, 90 min, second 30/60/90 series), 26%. In addition, the inhibition in vivo at 6 mg/kg in assay [1] (0.5 h, 6 mg/kg iv, AII .025 ug/kg, 30 min) turned out to be 50%; in assay [1] (1.5 h, 6 mg/kg iv, AII .1 ug/kg, 90 min), 30%.
On to `CCCCc1nc2ccc(C(C)OC(C)=O)cc2c(=O)n1Cc1ccc(-c2ccccc2-c2nnn[nH]2)cc1` (stereo not drawn) [Example 58, 6-[1-(Acetyloxy)ethyl]-2-butyl-3-[[2'-(1H-tetrazol-5-yl)[1,1'-biphenyl]-4-yl]methyl]-4(3H) -quinazolinone], for which the inhibition in vivo at 30 mg/kg in assay [1] (setting [2]) was 87%; in assay [1] (setting [3]), 98%; in assay [1] (setting [4]), 85%; in assay [1] (setting [5]), 95%; in assay [1] (setting [6]) it was 85%; in assay [1] (setting [7]) it was 81%.
With `CCCCc1nc2ccc(C(O)CC)cc2c(=O)n1Cc1ccc(-c2ccccc2-c2nnn[nH]2)cc1` (stereo not drawn) [Example 52], the “Response change (systolic BP increase to AII)” value was found to be 25 mmHg in assay [1] (5 mg/kg oral, AII .05 ug/kg, 30 min) and 15 mmHg in assay [1] (5 mg/kg oral, AII .05 ug/kg, 150 min). For the same compound, the inhibition in vivo at 5 mg/kg in assay [1] (setting [8]) is 52%; in assay [1] (setting [9]), 43%; in assay [1] (setting [10]) it was 66%; in assay [1] (setting [11]) it was 63%; in assay [1] (setting [12]), 71%; in assay [1] (setting [13]), 60%.
With `CCCCc1nc2ccc(C(C)(C)O)cc2c(=O)n1Cc1ccc(-c2ccccc2-c2nnn[nH]2)cc1` [Example 51, 2-butyl-6-(1-hydroxy-1-methylethyl)-3-[[2'-(1H-tetrazol-5-yl)-[1,1'-biphenyl]-4-yl]methyl]-4(3H)-quinazolinone], the inhibition in vivo at 5 mg/kg in assay [1] (setting [8]) worked out at 30%; in assay [1] (setting [9]), 26%; in assay [1] (setting [10]), 75%; in assay [1] (setting [11]) it was 55%; in assay [1] (setting [12]) it was 63%; in assay [1] (setting [13]), 46%.
